Drawing on patent US20180186742A1, “PICOLINAMIDES AS FUNGICIDES” (Dow AgroSciences LLC, priority 2017, published 2018), this text covers pest or weed control for twelve compounds.

The test system of one assay is Puccinia triticina. Kind of assay: Wheat brown rust (PUCCRT), disease control on wheat seedlings. The class given is in vivo. To be noted: high volume application at 100 ppm. The protocol: Technical grades of materials were dissolved in acetone, which were then mixed with nine volumes of water containing 110 ppm Triton X-100. The fungicide solutions were applied onto wheat seedlings using an automated booth sprayer to run-off. All sprayed plants were allowed to air dry prior to further handling. All fungicides were evaluated using the aforementioned method for their activity vs. all target diseases, unless stated otherwise. Wheat leaf blotch and brown rust activity were also evaluated using track spray applications, in which case the fungicides were formulated as EC formulations, containing 0.1% Trycol 5941 in the spray solutions. Wheat plants (variety Yuma) were grown from seed in a greenhouse in 50% mineral soil/50% soil-less Metro mix until the first leaf was fully emerged, with 7-10 seedlings per pot. These plants were inoculated with an aqueous spore suspension of Puccinia triticina either prior to or after fungicide treatments. After inoculation the plants were kept in a dark dew room at 22° C. with 100% relative humidity overnight to permit spores to germinate and infect the leaf. The plants were then transferred to a greenhouse set at 24° C. for disease to develop. Fungicide formulation, application and disease assessment followed the procedures as described in the Example A.

Another assay has as its system Zymoseptoria tritici. Kind of assay: Leaf blotch of wheat (SEPTTR), disease control on wheat seedlings. The class given is in vivo. Particulars: high volume application at 100 ppm. The protocol: Technical grades of materials were dissolved in acetone, which were then mixed with nine volumes of water containing 110 ppm Triton X-100. The fungicide solutions were applied onto wheat seedlings using an automated booth sprayer to run-off. All sprayed plants were allowed to air dry prior to further handling. All fungicides were evaluated using the aforementioned method for their activity vs. all target diseases, unless stated otherwise. Wheat leaf blotch and brown rust activity were also evaluated using track spray applications, in which case the fungicides were formulated as EC formulations, containing 0.1% Trycol 5941 in the spray solutions. Wheat plants (variety Yuma) were grown from seed in a greenhouse in 50% mineral soil/50% soil-less Metro mix until the first leaf was fully emerged, with 7-10 seedlings per pot. These plants were inoculated with an aqueous spore suspension of Zymoseptoria tritici either prior to or after fungicide treatments. After inoculation the plants were kept in 100% relative humidity (one day in a dark dew chamber followed by two to three days in a lighted dew chamber at 20° C.) to permit spores to germinate and infect the leaf. The plants were then transferred to a greenhouse set at 20° C. for disease to develop. When disease symptoms were fully expressed on the 1st leaves of untreated plants, infection levels were assessed on a scale of 0 to 100 percent disease severity. Percent disease control was calculated using the ratio of disease severity on treated plants relative to untreated plants.

The mark [1] stands for this setting: 24 h, 1 Day Protectant, read-out: PUCCRT disease control, 1DP, HV activity.
[2] abbreviates: 72 h, 3 Day Curative, read-out: PUCCRT disease control, 3DC, HV activity.
[3] abbreviates: 24 h, 1 Day Protectant, read-out: SEPTTR disease control, 1DP, HV activity.
The mark [4] stands for this setting: 72 h, 3 Day Curative, read-out: SEPTTR disease control, 3DC, HV activity.

SMILES strings stand for the structures. Like-named read-outs stand apart in the source and are kept apart here. A value given as a limit tells only on which side of the number the result lay.

As to `COc1ccnc(C(=S)N[C@@H](C)C(=O)O[C@@H](C)[C@H](c2ccc(F)cc2C)C(C)C)c1O` [Compound 136], the pest or weed control at 100 ppm with Puccinia triticina (setting [1]), in the assay on Puccinia triticina (setting [2]), in the assay on Zymoseptoria tritici (setting [3]) and with Zymoseptoria tritici (setting [4]) was > 80% in each case.
With `COc1cc(F)ccc1[C@@H](C(C)C)[C@H](C)OC(=O)[C@H](C)NC(=O)c1nccc(OC)c1O` [Compound 138], the pest or weed control at 100 ppm in the assay with Puccinia triticina (setting [1]) was > 80%; with Puccinia triticina (setting [2]), > 80%; in the assay on Zymoseptoria tritici (setting [3]), < 0%; in the assay with Zymoseptoria tritici (setting [4]), < 0%.
Consider `COc1cc(F)ccc1[C@@H](C1CCCCC1)[C@H](C)OC(=O)[C@H](C)NC(=O)c1nccc(OC)c1O` [Compound 139], for which the pest or weed control at 100 ppm with Puccinia triticina (setting [1]) is > 80%; with Puccinia triticina (setting [2]), < 80%; in the assay with Zymoseptoria tritici (setting [3]) it was > 80%; in the assay with Zymoseptoria tritici (setting [4]) it was < 0%.
As for `COc1cc(F)ccc1[C@@H](C1CCCC1)[C@H](C)OC(=O)[C@H](C)NC(=O)c1nccc(OC)c1O` [Compound 140], the pest or weed control at 100 ppm with Puccinia triticina (setting [1]) was > 80%; in the assay on Puccinia triticina (setting [2]) it was > 80%; in the assay with Zymoseptoria tritici (setting [3]) it was < 0%; in the assay on Zymoseptoria tritici (setting [4]) it was < 80%.
For the compound `CCC(C)[C@H](c1ccc(F)cc1OC)[C@H](C)OC(=O)[C@H](C)NC(=O)c1nccc(OC)c1O` (stereo partly drawn) [Compound 141], the pest or weed control at 100 ppm in the assay with Puccinia triticina (setting [1]) is < 80%; in the assay with Puccinia triticina (setting [2]), > 80%; in the assay with Zymoseptoria tritici (setting [3]) it was < 0%; with Zymoseptoria tritici (setting [4]), > 80%.
Turning to `COc1cc(F)ccc1[C@@H](C1CCC1)[C@H](C)OC(=O)[C@H](C)NC(=O)c1nccc(OC)c1O` [Compound 142], the pest or weed control at 100 ppm with Puccinia triticina (setting [1]) was > 80%; in the assay on Puccinia triticina (setting [2]), > 80%; in the assay with Zymoseptoria tritici (setting [3]), < 0%; with Zymoseptoria tritici (setting [4]), < 80%.
Consider `COc1cc(F)ccc1[C@H](C1CCCCC1)[C@H](C)OC(=O)[C@H](C)NC(=O)c1nccc(OC)c1O` [Compound 143], for which the pest or weed control at 100 ppm in the assay with Puccinia triticina (setting [1]) was > 80%; in the assay on Puccinia triticina (setting [2]) it was > 80%; in the assay with Zymoseptoria tritici (setting [3]), > 80%; with Zymoseptoria tritici (setting [4]), < 80%.
In the case of `COc1cc(F)ccc1[C@H](C1CCCC1)[C@H](C)OC(=O)[C@H](C)NC(=O)c1nccc(OC)c1O` [Compound 144], the pest or weed control at 100 ppm in the assay with Puccinia triticina (setting [1]) was > 80%; in the assay with Puccinia triticina (setting [2]), > 80%; with Zymoseptoria tritici (setting [3]), < 80%; in the assay with Zymoseptoria tritici (setting [4]), > 80%.
Take `CCC(CC)[C@@H](c1ccc(F)cc1OC)[C@H](C)OC(=O)[C@H](C)NC(=O)c1nccc(OC)c1O` [Compound 145]: the pest or weed control at 100 ppm with Puccinia triticina (setting [1]) was > 80%; in the assay on Puccinia triticina (setting [2]), > 80%; in the assay on Zymoseptoria tritici (setting [3]) it was < 80%; with Zymoseptoria tritici (setting [4]), > 80%.
In the case of `CCC(C)[C@@H](c1ccc(F)cc1OC)[C@H](C)OC(=O)[C@H](C)NC(=O)c1nccc(OC)c1O` (stereo partly drawn) [Compound 146], the pest or weed control at 100 ppm was > 80% in the assay with Puccinia triticina (setting [1]), > 80% with Puccinia triticina (setting [2]), < 80% in the assay on Zymoseptoria tritici (setting [3]) and > 80% in the assay with Zymoseptoria tritici (setting [4]).
Regarding `COc1cc(F)ccc1[C@H](C1CCC1)[C@H](C)OC(=O)[C@H](C)NC(=O)c1nccc(OC)c1O` [Compound 147], the pest or weed control at 100 ppm in the assay with Puccinia triticina (setting [1]) was > 80%; in the assay on Puccinia triticina (setting [2]), > 80%; in the assay with Zymoseptoria tritici (setting [3]) it was < 0%; in the assay on Zymoseptoria tritici (setting [4]) it was < 80%.
As to `COc1cc(F)ccc1[C@H](C(C)C)[C@H](C)OC(=O)[C@H](C)NC(=O)c1nccc(OC)c1O` [Compound 148], the pest or weed control at 100 ppm with Puccinia triticina (setting [1]) is < 80%; in the assay with Puccinia triticina (setting [2]), > 80%; in the assay with Zymoseptoria tritici (setting [3]), < 0%; in the assay on Zymoseptoria tritici (setting [4]), < 80%.
